Assay results reported in patent publication US11518764B2, “Substituted heteroaryls as inhibitors of the BCL6 BTB domain protein-protein interaction” (Ontario Institute for Cancer Research (OICR), priority 2018, dated 2022).

Legend:
BCL6 BTB domain = BCL6 BTB domain (Homo sapiens (Human), UniProt P41182); experiment: Surface plasmon resonance (SPR) assay; type: binding; conditions: BCL6 BTB domain captured on SA chip, single cycle kinetics
[1] = system: BCL6 reporter construct (3xBCL6-TK-Luc) in SuDHL4 cells; experiment: Cell-based luciferase assay; conditions: Homo sapiens, SU-DHL-4, 48 h, read-out: Luciferase-Assay EC50, uM), SuDHL4-3xBCL6-TK-Luc cells, two days, high dose 10 uM
In short: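 SuDHL4 cells stably carrying a 3×BCL6-site TK-promoter firefly luciferase reporter, seeded at 15,000 cells/well, were dosed over a 10-point range (top 10 uM) and grown two days at 37 °C, 5% CO2. Luminescence then read after adding neolite reagent at room temperature.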

Karpas422 cells = experiment: Tumor cell growth inhibition assay; type: cell-based; conditions: Homo sapiens, KARPAS-422, 144 h, read-out: Tumor Growth Inhibition in Karpas-422 (IC50, uM), Karpas422 cells, six days, ATPlite
In short: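 Karpas422 cells (2,000/well) in Alpha-MEM with 10% FBS dosed across 10 concentrations (top 5 uM) and grown six days at 37° C., 5% CO2. Viability read as ATPlite luminescence.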

Structure (SMILES): Cc1nc2c(c(-c3cc(Cl)c(O)c(C(N)=O)c3)cn2CC(=O)Nc2cc(N3CCN(C)C[C@@H]3C)nc(F)c2Cl)c(=O)n1C [Compound I-373]
- Kd (BCL6 BTB domain): 5.96 nM
- EC50 [1]: 0.0803 µM
- IC50 (Karpas422 cells): 0.105 µM

Structure (SMILES): COCCN1CCN(c2cc(NC(=O)Cn3cc(-c4cc(C(N)=O)c(O)c5c4OCO5)c4c(=O)n(C)cnc43)c(Cl)c(F)n2)[C@@H](C)C1 [Compound I-375]
- Kd (BCL6 BTB domain): 1.31 nM
- EC50 [1]: 0.0114 µM
- IC50 (Karpas422 cells): 0.0256 µM

Structure (SMILES): CCN1CCN(c2cc(NC(=O)Cn3cc(-c4cc(Cl)c(O)c(C(N)=O)c4)c4c(=O)n(C)c(C(F)(F)F)nc43)c(Cl)cn2)[C@@H](C)C1 [Compound I-376]
- Kd (BCL6 BTB domain): 73.4 nM
- EC50 [1]: 0.385 µM
- IC50 (Karpas422 cells): 0.366 µM

Structure (SMILES): C[C@H]1CN(CC2(C(F)(F)F)CC2)CCN1c1cc(NC(=O)Cn2cc(-c3cc(C(N)=O)c(O)c(F)c3F)c3c(=O)n(C)cnc32)c(Cl)cn1 [Compound I-377]
- Kd (BCL6 BTB domain): 208 nM
- EC50 [1]: 2.97 µM
- IC50 (Karpas422 cells): 8.61 µM

Structure (SMILES): Cc1nc2c(c(-c3cc(C(N)=O)c(O)c(F)c3F)cn2CC(=O)Nc2cc(N3CCN(C)C[C@@H]3C(C)C)ncc2Cl)c(=O)n1C [Compound I-378]
- Kd (BCL6 BTB domain): 118 nM
- EC50 [1]: 0.944 µM
- IC50 (Karpas422 cells): 1.22 µM

Structure (SMILES): Cc1nc2c(c(-c3cc(C(N)=O)c(O)c(F)c3F)cn2CC(=O)Nc2cc(N3CCN(C4CC4)C[C@@H]3C)ncc2Cl)c(=O)n1C [Compound I-379]
- Kd (BCL6 BTB domain): 68.6 nM
- EC50 [1]: 0.664 µM
- IC50 (Karpas422 cells): 0.853 µM

Structure (SMILES): Cc1nc2c(c(-c3cc(C(N)=O)c(O)c(F)c3F)cn2CC(=O)Nc2cc(N3CCN(C(C)C)C[C@@H]3C)ncc2Cl)c(=O)n1C [Compound I-380]
- Kd (BCL6 BTB domain): 56 nM
- EC50 [1]: 0.59 µM
- IC50 (Karpas422 cells): 0.478 µM

Structure (SMILES): COc1ncc(Cl)c(NC(=O)Cn2cc(-c3cc(C(N)=O)c(O)c(F)c3F)c3c(=O)n(C)c(C)nc32)c1F [Compound I-381]
- Kd (BCL6 BTB domain): 240 nM
- EC50 [1]: 10 µM
- IC50 (Karpas422 cells): 10 µM

Structure (SMILES): COc1ncc(Cl)c(NC(=O)Cn2cc(-c3cc(Cl)c(O)c(C(N)=O)c3)c3c(=O)n(C)c(C)nc32)c1F [Compound I-382]
- Kd (BCL6 BTB domain): 342 nM
- EC50 [1]: 3.1 µM
- IC50 (Karpas422 cells): 10 µM

Structure (SMILES): Cn1cnc2c(c(-c3cc(Cl)c(O)c(C(N)=O)c3)cn2CC(=O)Nc2ccc(F)cc2Cl)c1=O [Compound I-383]
- Kd (BCL6 BTB domain): 460 nM
- EC50 [1]: 2.44 µM
- IC50 (Karpas422 cells): 1.05 µM

Structure (SMILES): Cn1cnc2c(c(-c3cc(Cl)c(O)c(C(N)=O)c3)cn2CC(=O)Nc2ccc(C#N)cc2Cl)c1=O [Compound I-384]
- Kd (BCL6 BTB domain): 115 nM
- EC50 [1]: 1.18 µM
- IC50 (Karpas422 cells): 0.8 µM

Structure (SMILES): Cn1cnc2c(c(-c3cc(Cl)c(O)c(C(N)=O)c3)cn2CC(=O)Nc2ccc([N+](=O)[O-])cc2Cl)c1=O [Compound I-385]
- Kd (BCL6 BTB domain): 38.4 nM
- EC50 [1]: 0.312 µM
- IC50 (Karpas422 cells): 0.335 µM

Structure (SMILES): CO[C@@H]1CN(c2cc(NC(=O)Cn3cc(-c4cc(Cl)c(O)c(C(N)=O)c4)c4c(=O)n(C)c(C(F)(F)F)nc43)c(Cl)cn2)C[C@@H]1F [Compound I-386]
- Kd (BCL6 BTB domain): 153 nM
- EC50 [1]: 1.01 µM
- IC50 (Karpas422 cells): 0.772 µM

Structure (SMILES): CO[C@H]1CN(c2cc(NC(=O)Cn3cc(-c4cc(Cl)c(O)c(C(N)=O)c4)c4c(=O)n(C)c(C(F)(F)F)nc43)c(Cl)cn2)C[C@H]1F [Compound I-387]
- Kd (BCL6 BTB domain): 189 nM
- EC50 [1]: 1.12 µM
- IC50 (Karpas422 cells): 1.04 µM

Structure (SMILES): CO[C@@H]1CN(c2cc(NC(=O)Cn3cc(-c4cc(Cl)c(O)c(C(N)=O)c4)c4c(=O)n(C)c(C(F)(F)F)nc43)c(Cl)c(F)n2)C[C@@H]1F [Compound I-388]
- Kd (BCL6 BTB domain): 528 nM
- EC50 [1]: 1.51 µM
- IC50 (Karpas422 cells): 0.394 µM

Structure (SMILES): CO[C@H]1CN(c2cc(NC(=O)Cn3cc(-c4cc(Cl)c(O)c(C(N)=O)c4)c4c(=O)n(C)c(C(F)(F)F)nc43)c(Cl)c(F)n2)C[C@H]1F [Compound I-389]
- Kd (BCL6 BTB domain): 286 nM
- EC50 [1]: 2.01 µM
- IC50 (Karpas422 cells): 1.46 µM

Structure (SMILES): CCN1CCN(c2cc(NC(=O)Cn3cc(-c4cc(F)c(O)c(C(N)=O)c4)c4c(=O)n(C)cnc43)c(Cl)cn2)[C@@H](C)C1 [Compound I-390]
- Kd (BCL6 BTB domain): 6.18 nM
- EC50 [1]: 0.0677 µM
- IC50 (Karpas422 cells): 0.0483 µM
